Assay results reported in patent US9062124B2, “GIP-based mixed agonists for treatment of metabolic disorders and obesity” (priority 2008, dated 2015).
Where a SMILES comes first, the peptide text is derived from it. Where no end group is shown, it is not given here. [ ]: non-standard residue; d: D form. Dab = NCC[C@H](N)C(=O)O; Aib = CC(C)(N)C(=O)O

How the values were obtained:
GLP-1 receptor = target: T1, GLP-1 receptor (Homo sapiens, UniProt P43220); assay: cAMP synthesis functional assay (firefly luciferase reporter in HEK293 cells), GLP-1 receptor; format: cell-based; conditions: for GLP-1 Receptor relative activity: relative to the native hormone of the indicated receptor
T1 construct: expressed in transfected cells; host or cells: HEK293
T1 sequence (P43220 24-463, species assumed): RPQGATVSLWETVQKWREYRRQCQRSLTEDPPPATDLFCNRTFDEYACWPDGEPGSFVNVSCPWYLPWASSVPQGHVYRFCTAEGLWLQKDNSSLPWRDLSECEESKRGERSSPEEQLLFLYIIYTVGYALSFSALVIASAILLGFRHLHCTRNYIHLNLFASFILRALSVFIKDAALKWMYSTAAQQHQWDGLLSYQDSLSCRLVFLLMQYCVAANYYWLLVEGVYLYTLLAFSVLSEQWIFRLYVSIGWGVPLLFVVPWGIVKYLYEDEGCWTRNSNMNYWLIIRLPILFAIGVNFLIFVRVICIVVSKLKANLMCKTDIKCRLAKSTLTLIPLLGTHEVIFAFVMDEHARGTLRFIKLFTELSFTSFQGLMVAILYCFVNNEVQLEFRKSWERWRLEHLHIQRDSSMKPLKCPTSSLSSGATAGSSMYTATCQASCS

glucagon receptor = target: T2, glucagon receptor (Homo sapiens, UniProt P47871); assay: cAMP synthesis functional assay (firefly luciferase reporter in HEK293 cells), glucagon receptor; format: cell-based; conditions: for Glucagon Receptor relative activity: relative to the native hormone of the indicated receptor; for % activity*: glucagon receptor
T2 construct: expressed in transfected cells; host or cells: HEK293
T2 sequence (P47871 26-477): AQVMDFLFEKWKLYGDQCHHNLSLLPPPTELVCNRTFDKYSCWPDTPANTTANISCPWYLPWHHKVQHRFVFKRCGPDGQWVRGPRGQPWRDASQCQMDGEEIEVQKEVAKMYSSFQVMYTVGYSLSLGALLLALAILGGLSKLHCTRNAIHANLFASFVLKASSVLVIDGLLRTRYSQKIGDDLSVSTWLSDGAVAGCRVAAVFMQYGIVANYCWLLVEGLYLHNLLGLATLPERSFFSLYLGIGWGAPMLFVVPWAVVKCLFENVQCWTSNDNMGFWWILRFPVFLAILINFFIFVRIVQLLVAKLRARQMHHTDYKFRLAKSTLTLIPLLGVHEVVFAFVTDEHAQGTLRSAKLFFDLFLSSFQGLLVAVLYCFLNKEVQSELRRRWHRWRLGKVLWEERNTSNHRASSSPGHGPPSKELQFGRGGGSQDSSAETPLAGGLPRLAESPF

Molecule | GLP-1 Receptor relative activity (GLP-1 receptor; Table 1) | Glucagon Receptor relative activity (glucagon receptor; Table 1) | also measured
CC[C@H](C)[C@H](NC(=O)[C@H](CO)NC(=O)[C@H](Cc1ccc(O)cc1)NC(=O)[C@H](CC(=O)O)NC(=O)[C@H](CO)NC(=O)[C@@H](NC(=O)[C@H](Cc1ccccc1)NC(=O)[C@@H](NC(=O)CNC(=O)[C@H](CCC(N)=O)NC(=O)C(C)(C)N)[C@@H](C)O)[C@@H](C)O)C(=O)N[C@@H](Cc1ccc(O)cc1)C(=O)N[C@@H](CC(C)C)C(=O)N[C@@H](CC(=O)O)C(=O)N[C@@H](CCC(=O)O)C(=O)N[C@@H](CCC(=O)O)C(=O)N[C@@H](C)C(=O)N[C@H](C(=O)N[C@@H](CCCNC(=N)N)C(=O)N[C@@H](CC(C)C)C(=O)N[C@@H](Cc1ccccc1)C(=O)N[C@H](C(=O)N[C@@H](CC(N)=O)C(=O)N[C@@H](Cc1c[nH]c2ccccc12)C(=O)N[C@@H](CC(C)C)C(=O)N[C@@H](CC(C)C)C(=O)N[C@@H](C)C(=O)NCC(=O)NCC(=O)N1CCC[C@H]1C(=O)N[C@@H](CO)C(=O)N[C@@H](CO)C(=O)NCC(=O)N[C@@H](C)C(=O)N1CCC[C@H]1C(=O)N1CCC[C@H]1C(=O)N1CCC[C@H]1C(=O)N[C@@H](CO)C(N)=O)C(C)C)C(C)C [mt-194] (H-[Aib]QGTFTSDYSIYLDEEAVRLFVNWLLAGGPSSGAPPPS-NH2; N-terminus assumed) | 0.63% | – | –
HSQGTFTSDYSKYLDKIHQEEFIAWLMNT-NH2 [mt-68] | 6.10% | 13.20% | EC50 (glucagon receptor; Glucagon Receptor EC50, nM, Table 1): 1.97 nM
CNC(=O)CC[C@H](NC(=O)[C@H](CO)NC(=O)[C@@H](N)Cc1c[nH]cn1)C(=O)NCC(=O)N[C@H](C(=O)N[C@@H](Cc1ccccc1)C(=O)N[C@H](C(=O)N[C@@H](CO)C(=O)N[C@@H](CC(=O)O)C(=O)N[C@@H](Cc1ccc(O)cc1)C(=O)N[C@@H](CO)C(=O)N[C@@H](CCCCN)C(=O)N[C@@H](Cc1ccc(O)cc1)C(=O)N[C@@H](CC(C)C)C(=O)N[C@@H](CC(=O)O)C(=O)NC(C)(C)C(=O)N[C@@H](CCCNC(=N)N)C(=O)N[C@@H](CCCNC(=N)N)C(=O)N[C@@H](C)C(=O)N[C@@H](C)C(=O)N[C@@H](CC(=O)O)C(=O)N[C@@H](Cc1ccccc1)C(=O)N[C@H](C(=O)N[C@@H](C)C(=O)N[C@@H](Cc1c[nH]c2ccccc12)C(=O)N[C@@H](CC(C)C)C(=O)N[C@@H](CCSC)C(=O)N[C@@H](CC(=O)O)C(=O)N[C@@H](CCC(=O)O)C(=O)O)C(C)C)[C@@H](C)O)[C@@H](C)O [SEQ ID NO: 251] | – | – | % activity* (glucagon receptor; Table 6): 55%
CC(=O)NCC[C@H](NC(=O)[C@H](CO)NC(=O)[C@@H](N)Cc1c[nH]cn1)C(=O)NCC(=O)N[C@H](C(=O)N[C@@H](Cc1ccccc1)C(=O)N[C@H](C(=O)N[C@@H](CO)C(=O)N[C@@H](CC(=O)O)C(=O)N[C@@H](Cc1ccc(O)cc1)C(=O)N[C@@H](CO)C(=O)N[C@@H](CCCCN)C(=O)N[C@@H](Cc1ccc(O)cc1)C(=O)N[C@@H](CC(C)C)C(=O)N[C@@H](CC(=O)O)C(=O)NC(C)(C)C(=O)N[C@@H](CCCNC(=N)N)C(=O)N[C@@H](CCCNC(=N)N)C(=O)N[C@@H](C)C(=O)N[C@H](C(=O)N[C@@H](CC(=O)O)C(=O)N[C@@H](Cc1ccccc1)C(=O)N[C@H](C(=O)N[C@H](C(=O)N[C@@H](Cc1c[nH]c2ccccc12)C(=O)N[C@@H](CC(C)C)C(=O)N[C@@H](CC(C)C)C(=O)N[C@@H](CC(=O)O)C(=O)N[C@@H](CCC(=O)O)C(=O)O)[C@@H](C)O)C(C)C)[C@@H](C)O)[C@@H](C)O)[C@@H](C)O [SEQ ID NO: 256] (H-HS[Dab](Ac)GTFTSDYSKYLD[Aib]RRATDFVTWLLDE-OH; N-terminus and C-terminus assumed) | – | – | % activity* (glucagon receptor; Table 7): 46%
CC(=O)NCC[C@H](NC(=O)[C@H](CO)NC(=O)[C@@H](N)Cc1c[nH]cn1)C(=O)NCC(=O)N[C@H](C(=O)N[C@@H](Cc1ccccc1)C(=O)N[C@H](C(=O)N[C@@H](CO)C(=O)N[C@@H](CC(=O)O)C(=O)N[C@@H](Cc1ccc(O)cc1)C(=O)N[C@@H](CO)C(=O)N[C@@H](CCCCN)C(=O)N[C@@H](Cc1ccc(O)cc1)C(=O)N[C@@H](CC(C)C)C(=O)N[C@@H](CC(=O)O)C(=O)NC(C)(C)C(=O)N[C@@H](CCCNC(=N)N)C(=O)N[C@@H](CCCNC(=N)N)C(=O)N[C@@H](C)C(=O)N[C@@H](C)C(=O)N[C@@H](CC(=O)O)C(=O)N[C@@H](Cc1ccccc1)C(=O)N[C@H](C(=O)N[C@@H](C)C(=O)N[C@@H](Cc1c[nH]c2ccccc12)C(=O)N[C@@H](CC(C)C)C(=O)N[C@@H](CC(C)C)C(=O)N[C@@H](CC(=O)O)C(=O)N[C@H](C(=O)NCC(=O)N1CCC[C@H]1C(=O)N[C@@H](CO)C(=O)N[C@@H](CO)C(=O)NCC(=O)N[C@@H](C)C(=O)N1CCC[C@H]1C(=O)N1CCC[C@H]1C(=O)N1CCC[C@H]1C(=O)N[C@@H](CO)C(N)=O)[C@@H](C)O)C(C)C)[C@@H](C)O)[C@@H](C)O [SEQ ID NO: 254] (H-HS[Dab](Ac)GTFTSDYSKYLD[Aib]RRAADFVAWLLDTGPSSGAPPPS-NH2; N-terminus assumed) | – | – | % activity* (glucagon receptor; Table 7): 113%
CC[C@H](C)[C@H](NC(=O)[C@H](CO)NC(=O)[C@H](Cc1ccc(O)cc1)NC(=O)[C@H](CC(=O)O)NC(=O)[C@H](CO)NC(=O)[C@@H](NC(=O)[C@H](Cc1ccccc1)NC(=O)[C@@H](NC(=O)CNC(=O)[C@H](CCC(=O)O)NC(=O)C(C)(C)NC(=O)[C@@H](N)Cc1ccc(O)cc1)[C@@H](C)O)[C@@H](C)O)C(=O)N[C@@H](Cc1ccc(O)cc1)C(=O)N[C@@H](CC(C)C)C(=O)N[C@@H](CC(=O)O)C(=O)N[C@@H](CCCCN)C(=O)N[C@@H](CCC(N)=O)C(=O)N[C@@H](C)C(=O)N[C@@H](C)C(=O)NC(C)(C)C(=O)N[C@@H](CCC(=O)O)C(=O)N[C@@H](Cc1ccccc1)C(=O)N[C@H](C(=O)N[C@@H](CCCCN)C(=O)N[C@@H](Cc1c[nH]c2ccccc12)C(=O)N[C@@H](CC(C)C)C(=O)N[C@@H](CC(C)C)C(=O)N[C@@H](C)C(=O)NCC(=O)NCC(=O)N1CCC[C@H]1C(=O)N[C@@H](CO)C(=O)N[C@@H](CO)C(=O)NCC(=O)N[C@@H](C)C(=O)N1CCC[C@H]1C(=O)N1CCC[C@H]1C(=O)N1CCC[C@H]1C(=O)N[C@@H](CO)C(N)=O)C(C)C [mt-268] | – | – | EC50 (GLP-1 receptor; GLP-1 Receptor EC50, cAMP luciferase reporter assay as in Example 16): 0.0155 nM; EC50 (glucagon receptor; Glucagon Receptor EC50, cAMP luciferase reporter assay as in Example 16): 6.5 nM
FTSDYSIYLDEQAAKEFVNWLLAGGPSSGAPPPS-NH2 [mt-192] | 0.06% | – | –

Continued, in another order:

GLP-1 Receptor relative activity (GLP-1 receptor; Table 1) | Glucagon Receptor relative activity (glucagon receptor; Table 1) | Molecule | also measured
38.46% | 13.00% | HSQGTFTSDYSKYLDEIHQKEFIAWLLAQ-NH2 [mt-66] | –
0.02% | 0.11% | YAEGTFISDYSIAMDKIHQQDFVNWLLAQ-NH2 [mt-106] | –
150.00% | 14.33% | CC[C@H](C)[C@H](NC(=O)[C@H](Cc1ccccc1)NC(=O)[C@@H]1CCC(=O)NCCCC[C@@H]2NC(=O)[C@@H](NC(=O)[C@H](CC(=O)O)NC(=O)[C@H](CC(C)C)NC(=O)[C@H](Cc3ccc(O)cc3)NC(=O)[C@@H](NC(=O)[C@H](CO)NC(=O)[C@H](Cc3ccc(O)cc3)NC(=O)[C@H](CC(=O)O)NC(=O)[C@H](CO)NC(=O)[C@@H](NC(=O)[C@H](Cc3ccccc3)NC(=O)[C@@H](NC(=O)CNC(=O)[C@H](CCC(N)=O)NC(=O)[C@H](CO)NC(=O)[C@@H](N)Cc3c[nH]cn3)[C@@H](C)O)[C@@H](C)O)[C@@H](C)CC)CCC(=O)NCCCC[C@H](NC(=O)[C@H](CCC(N)=O)NC(=O)[C@H](Cc3c[nH]cn3)NC2=O)C(=O)N1)C(=O)N[C@@H](C)C(=O)N[C@@H](Cc1c[nH]c2ccccc12)C(=O)N[C@@H](CC(C)C)C(=O)N[C@@H](CC(C)C)C(=O)N[C@@H](C)C(=O)N[C@@H](CCC(N)=O)C(N)=O [mt-93] | EC50 (GLP-1 receptor; GLP-1 Receptor EC50, nM, Table 1): 0.04 nM
